1 compound from patent US20110207722A1, “TREATMENT OF ANXIETY DISORDERS” (N[…]/S, priority 2008, published 2011) can be followed below.

In this test the test system is Mice. The experiment in a line: Marble burying test. It counts as in vivo, mouse. Particulars: Compound I 0.05 mg/kg orally 60 min before testing; diazepam 0.03-0.3 mg/kg i.p. 30 min before testing; 30 min test session; n=8. Here is the method:
FIGS. 1 and 2 show the effect of the compound exo-7-(8-H-8-aza-bicyclo[3.2.1]oct-3-yloxy)-chromen-2-one (Compound I or Cp I) and diazepam, respectively, in the mouse marble burying test. Compound I (0.05-0.2 mg/kg) was administered orally 60 min before testing. Diazepam (0.1-1 mg/kg) was injected via the intraperitoneal (i.p.) route 30 min before testing. *P<0.05, ***P<0.001 vs. vehicle-treated group (Student's t-test, n=8).
Compound I (0.05 mg/kg) was administered orally 60 min before testing. Diazepam (0.03-0.3 mg/kg) was injected via the intraperitoneal (i.p.) route 30 min before testing. Paroxetine (10 mg/kg, i.p., −30 min) served as a positive control. *P<0.05, **P<0.01 vs. vehicle-treated group (Student's t-test, n=8).
Mice were placed for 30 min in novel cages (one mouse per cage, 20×30 cm) in which there were 20 glass marbles (15 mm in diameter) situated in four rows of five placed on top of 5 cm of sawdust. […]

For the compound `O=c1ccc2ccc(O[C@@H]3C[C@H]4CC[C@@H](C3)N4)cc2o1` [Compound I, exo-7-(8-H-8-aza-bicyclo[3.2.1]oct-3-yloxy)-chromen-2-one], the “effect on the activity of diazepam in the mouse marble burying test (number of glass marbles buried)” value was “augments the activity of diazepam”.
